{"source": "patent US11793824B2", "about": "“Administration of nicotinamide mononucleotide in the treatment of disease” (Washington University, priority 2013, dated 2023)", "test_system": "Nampt Ad-Cre infected NSPCs", "assay": "Nampt Ad-Cre infected neurospheres with or without NMN: NAD+, proliferation, differentiation", "assay_type": "cell-based, mouse", "experimental": "NAD+ levels were determined using an HPLC system (Shimadzu) with a Supelco LC-18-T column (15 cm×[…]; Sigma), as described previously (Yoshino et al, 2011).\nNeurospheres derived from Nampt^flox/flox mice were infected with Ad5 Cre recombinase- or b-galactosidase-expressing (LacZ, control) adenoviruses at an MOI of 100. All assessments were performed at least 6 days post infection.\nNeurospheres derived from Nampt^flox/flox mice were dissociated by trypsin digestion and seeded at similar cell densities in 24-well plates with fresh growth medium. Every 24 hours, neurospheres from triplicate wells were collected, dissociated, and counted on a hemocytometer using 0.2% trypan blue exclusion to distinguish viable cells. For analysis of neurosphere diameter, the largest neurosphere in each well was imaged (20× objective) and the diameter was calculated using ImageJ. For secondary neurosphere analysis, the total number of neurospheres in each well was counted at 7 days post-plating.\nThree to five days after their first passage, neurospheres were trypsinized, washed with dissociation medium, and plated at 150,000 cells per well in 24-well plates in differentiation medium [growth medium without FGF and EGF and with BDNF (5 ng/mL, Peprotech, 450-02) on glass coverslips coated with poly-D-lysine (50 ug/mL; Sigma) and laminin (20 ug/mL; BD Biosciences)]. 6-well plates were coated with poly-D-lysine (20 ug/mL) and laminin (10 ug/mL). […] The percentage of oligodendrocyte precursor cells (OPCs) generated was analyzed after 2 d of differentiation, and the percentage of differentiated oligodendrocytes was analyzed after 6-7 d of differentiation. […]\nNampt Ad-Cre NSPCs were unable to increase their cell number between 24 and 144 hours of culture. […] Since NSPC self-renewal decisions can also contribute to cell number, the inventors assessed secondary neurosphere formation, an assay that quantifies the ability of neurosphere inhabitant cells to reformulate neurospheres upon dissociation. […]"}
{"smiles": "NC(=O)c1ccc[n+]([C@@H]2O[C@H](COP(=O)([O-])O)[C@@H](O)[C@H]2O)c1", "note": "[NMN, nicotinamide mononucleotide]", "values": [{"measurement": "rescue of reduction in NAD+ levels in Nampt Ad-Cre NSPCs", "setting": "NMN 100 μM, 48 hours, eight days post deletion", "value": "rescued"}, {"measurement": "proliferative potential of Nampt Ad-Cre cells", "setting": "NMN 200 μM", "value": "fully reactivate"}, {"measurement": "defects in differentiation (oligodendrogenesis, Nestin+ retention) of Nampt Ad-Cre NSPCs", "setting": "treatment with NMN, 6-7 days of differentiation", "value": "rescued defects in oligodendrogenesis"}]}
